Blank lines part the entries; values can stand above or below the compound they belong to.
How the values were obtained:
[1] = molecular target: T1, FABP7 (Homo sapiens, UniProt O15540); assay: radioligand competition against 3H-cholesterol; format: binding; details: 1.5 µM cholesterol, pH 7.4, 25 °C, competitive
T1 sequence (O15540 2-132): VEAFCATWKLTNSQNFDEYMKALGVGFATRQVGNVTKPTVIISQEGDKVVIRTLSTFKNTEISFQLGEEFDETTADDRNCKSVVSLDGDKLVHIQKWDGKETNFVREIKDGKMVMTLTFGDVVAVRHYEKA

[2] = molecular target: T2, FABP3 (Homo sapiens, UniProt P05413); assay: radioligand binding, Ni bead pull-down, scintillation counting; details: 1.5 µM ligand, 150 nM protein; labelled compound; pH 7.4, 25 °C
[3] = molecular target: T1, FABP7; assay: as above
[4] = molecular target: T3, FABP8 (Homo sapiens, UniProt P02689); assay: as above; details: 1.5 µM ligand, 150 nM protein; labelled compound; pH 7.4, 25 °C
[5] = molecular target: T1, FABP7; details: 0.5 µM protein, 5 mol% DHE in donor liposomes, pH 7.2, 25 °C
[6] = molecular target: T2, FABP3; details: 0.5 µM protein, 5 mol% DHE in donor liposomes, pH 7.2, 25 °C
[7] = molecular target: T3, FABP8; details: 0.5 µM protein, 5 mol% DHE in donor liposomes, pH 7.2, 25 °C
[8] = molecular target: T3, FABP8; assay: radioligand binding, Ni bead pull-down, scintillation counting; details: 1.5 µM ligand, 150 nM protein; labelled compound; pH 7.4, 25 °C; remark: listed apart in the source
[9] = molecular target: T2, FABP3; assay: as above; details: 1.5 µM ligand, 150 nM protein; labelled compound; pH 7.4, 25 °C; remark: listed apart in the source

T2 sequence (P05413 2-133): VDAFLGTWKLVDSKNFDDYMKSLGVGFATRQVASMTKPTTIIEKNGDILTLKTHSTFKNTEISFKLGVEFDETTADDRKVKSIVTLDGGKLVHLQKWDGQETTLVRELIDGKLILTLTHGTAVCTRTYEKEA
T3 sequence (P02689 2-132): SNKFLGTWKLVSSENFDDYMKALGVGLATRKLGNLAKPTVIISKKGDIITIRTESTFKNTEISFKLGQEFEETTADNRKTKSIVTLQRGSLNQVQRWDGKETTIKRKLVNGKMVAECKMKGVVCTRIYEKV

Compound: CCCCC/C=C\C/C=C\C/C=C\C/C=C\CCCC(=O)O [arachidonic acid]
relative 3H-cholesterol bound ([1]; competitor 7.5 µM): all the tested fatty acids could compete with ^3H-cholesterol for FABP7 binding

Kd [3]: 3.04 ± 0.78 µM
Compound: CC(C)CCC[C@@H](C)[C@H]1CC[C@H]2[C@@H]3CC=C4C[C@@H](O)CC[C@]4(C)[C@H]3CC[C@]12C [cholesterol]
relative 3H-cholesterol bound [2]: FABP3 showed modestly yet significantly reduced binding affinity for cholesterol
relative 3H-cholesterol bound [4]: FABP8 bound cholesterol as potently as FABP7

Compound: CC(C)[C@@H](C)/C=C/[C@@H](C)[C@H]1CC[C@H]2C3=CC=C4C[C@@H](O)CC[C@]4(C)C3=CC[C@]12C [dehydroergosterol]
initial transport rate [5]: The purified FABP7 protein promoted DHE transport
initial transport rate [6]: FABP3 and FABP8 could transfer DHE as efficiently as FABP7
initial transport rate [7]: FABP3 and FABP8 could transfer DHE as efficiently as FABP7

Compound: CC/C=C\C/C=C\C/C=C\C/C=C\C/C=C\C/C=C\CCC(=O)O [docosahexaenoic acid]
relative 3H-cholesterol bound ([1]; competitor 7.5 µM): all the tested fatty acids could compete with ^3H-cholesterol for FABP7 binding

Compound: CCCCCCCC/C=C\CCCCCCCC(=O)O [oleic acid]
relative 3H-cholesterol bound ([1]; competitor 3.75-15 µM): oleic acid was the most potent ligand and showed a dose-dependent competing effect
relative 3H-oleic acid bound [8]: Both FABP3 and FABP8 could bind oleic acid avidly
relative 3H-oleic acid bound [9]: Both FABP3 and FABP8 could bind oleic acid avidly

Compound: CCCCCCCCCCCCCCCC(=O)O [palmitic acid]
relative 3H-cholesterol bound ([1]; competitor 7.5 µM): all the tested fatty acids could compete with ^3H-cholesterol for FABP7 binding

Source: PMC10909654 (The Journal of Cell Biology, 2024)
